# Results published in patent US9241976B2, “Use of HDL-related molecules to treat and prevent proinflammatory conditions” (THE REGENTS OF THE UNIVERSITY OF CALIFORNIA, priority 2011, dated 2016).
# How the values were obtained:
# CT26 cells [1] = test: Pulmonary metastasis in vivo: CT26 lung tumors in BALB/c mice; set-up: species or system mouse; settings: CT26 via tail vein, 100 mg/kg/d in chow diet for 3 weeks
# Protocol: BALB/c mice were intravenously injected with 2×10^4 CT26 cells in 100 μL of PBS via tail vein injection and the mice were treated with bHDL at 10 mg/kg/day administered SQ for 3 weeks; or treated with bHDL at 100 mg/kg/day administered in a chow diet for 3 weeks. After 3 weeks treatment, the mice were sacrificed; lungs were harvested, weighed and fixed with Bouin's solution (Sigma). Tumor nodules on the lung surface were counted.
# BALB/c mice were intravenously injected with 2×10^4 CT26 cells in […] of PBS via tail vein injection and the mice were treated with L-4F or sc-4F at 10 mg/kg/d administered subcutaneously for 3 weeks, or treated with sc-4F or L-4F or G* peptide at 100 mg/kg/d administered in a chow diet for 3 weeks. After 3 weeks treatment, the mice were sacrificed; lungs were harvested, weighed, and fixed with Bouin solution (Sigma). Tumor nodules on the lung surface were counted.
# [2] = system: lysophosphatidic acid (LPA); test: Plasma LPA levels in treated mice; assay type: in vivo, mouse; settings: BALB/c lung tumor mice; 100 mg/kg/d in chow for 3 weeks; vs control mice
# Protocol: LPA (20:4) was purchased from Avanti Polar Lipids. LPA levels were determined as described previously (Murph et al., 2007, Methods Enymol 433:1-25).
# LPA (20:4) was purchased from Avanti Polar Lipids. LPA levels were determined as described previously (19).
# cyclin D1 and cyclin A = test: Western blot of cyclin D1 and cyclin A in CT26 cells; assay type: cell-based, mouse
# Protocol: Total cell proteins were collected after treatment in cell lysis buffer containing 0.1 mol/L NaCl, 5 mmol/L EDTA, 50 mmol/L sodium orthovanadate, 1% Triton X-100, and protease inhibitor tablet in 50 mmol/L Tris buffer (pH 7.5). Twenty micrograms of total proteins were separated by SDS-PAGE and transferred onto nitrocellulose membrane and followed by incubation with primary antibody at 4° C. in 5% skim milk and 0.1% Tween-20. Anti-cyclin D1 and anti-cyclin A rabbit polyclonal antibodies were used at 1:1,000 dilution, and anti-b-actin polyclonal antibody was used at 1:2,000 dilution.
# CT26 cells [3] = test: CT26 cell viability, MTS assay; settings: Example 5; CT26 cells, 10 mg/mL, 48 hours
# Protocol: CT26 cell line derived from N-nitroso-N-methyl urethane-induced mouse colon carcinoma of BALB/c origin was purchased from the American Type Culture Collection (ATCC). CT26 cells (2,000 cells per well) were first cultured in complete medium in 96-well culture plates, and 24 hours later the medium was replaced with serum free medium. Following an overnight incubation, the cells were either treated with vehicle (control), or treated with 10 μg/mL of either bHDL. The bHDL were dissolved in H2O. Cells were incubated for an additional 48 hours and assayed for viability using the MTS assays kit (Promega) according to the manufacturer's protocol.
# CT26 cell line derived from N-nitroso-N-methyl urethane-induced mouse colon carcinoma of BALB/c origin was purchased from the American Type Culture Collection. CT26 cells (2,000 cells per well) were first cultured in complete medium in 96-well culture plates, and 24 hours later the medium was replaced with serum-free medium. Following an overnight incubation, the cells were either treated with vehicle (control) or treated with 10 mg/mL of either L-4F or G* peptide. The peptides were dissolved in H2O. Cells were incubated for an additional 48 hours and assayed for viability using the MTS assay kit (Promega) according to the manufacturer's protocol.
substance,measurement,setting,value
"Ac-LVGRQLEEFL-NH2 [G* peptide, Ac-L-V-G-R-Q-L-E-E-F-LNH2]",lung weights,CT26 cells [1],250 mg
same,tumor numbers on the lung surface,CT26 cells [1],10
same,plasma LPA levels,[2],significantly reduced
same,expression of cyclin D1 and cyclin A,cyclin D1 and cyclin A,lower
same,"Cell viability reduced, compared with control",CT26 cells [3],approximately 40%
